From US20120053076A1, “METHODS FOR IDENTIFICATION” (Cambridge Enterprise Limited, priority 2009, published 2012)

System: Jurkat-D3B cells
Experiment: SDF-1α induced migration of Jurkat-D3B cells expressing sstr2
Format: cell-based, human
Procedure: Methods: Total mRNA was prepared from Panc-1 cells (a human pancreas cell line which is well known to express high levels of sstr2) using the RNAqueous 4PCR kit (Ambion, Cat code #1914) in accordance with the manufacturer's instructions. The mRNA was then reverse transcribed (using the RETROscript kit; Ambio) to yield a cDNA preparation. A full length cDNA of the sstr2 gene was then obtained by PCR (using a Peltier PTC-200 thermal cycler using the following cycle times and conditions: 94° C. for 2 min, followed by 30 cycles of 94° C., for 30 sec, 55° C. for 30 sec, 72° C. for 1 min and finally 72° C. for 10 min), and isolated by preparative gel electrophoresis. The sequence of the sstr2 cDNA was confirmed by sequencing. The sstr2 cDNA was treated with EcoRI and Xhol to generate sticky ends, which allowed directional cloning into the polylinker of the plasmid pcDNA3.1+ (Invitrogen) followed by ligation (100 ligation reactions were run with 400 T4 DNA ligase (New England Biolabs) and the maximal amounts of DNA with an insert:plasmid ratio of 3:1 in ligase buffer incubated overnight at 13° C.). […]
A number of individual cell lines were obtained in this way, which expressed significant levels of sstr2 on the cell surface, detected by flow cytometry using the human-sstr2 antibody (Sigma, 50694; see Example 3 for details of the flow cytometry protocol used). […]

Structure (SMILES): CC(C)(C)C(=O)N[C@H]1CCCNC1=O [Valerolactam, (S)-3-(2′,2′-dimethylpropionoylamino)-tetrahydropyridin-2-one]
- Inhibition of Jurkat-D3B migration, in words: sensitive to inhibition
